Tests used:
Johnsongrass = assay: Post emergent treatment of plots with abundant Johnsongrass growth, % control (Example 1); type: in vivo, Sorghum halepense
Procedure: In order to determine the efficacy of combinations of clethodim and GA3, numerous treatments were applied to plots in an area with abundant Johnsongrass growth.
The percent control of Johnsongrass plants was evaluated at 7, 18 and 28 days following the treatment. Effect of Clethodim and GA3 Treatments on Johnsongrass (% control).”
The percent control refers to the amount of dead tissue on the plants present. It would be dead plants plus desiccated foliage on partially killed plants.

[1] = test system: Glyphosate resistant corn; assay: Clethodim and GA3 treatments on planted glyphosate resistant corn, % control (Example 2); type: in vivo
Procedure: A further study was performed in order to confirm the effect clethodim and GA3 treatments have on corn. Glyphosate resistant corn was planted with a conventional four-row planter. Treatments were applied 28 days after the plantings.
The percent corn control was evaluated at […] days following the treatments. Effect of Clethodim and GA3 Treatments on corn (% control).

SMILES	Effect of GA3 on the activity of clethodim on Johnsongrass (Johnsongrass; seven days following treatment, versus clethodim alone)	Effect of GA3 on the activity of clethodim on corn ([1]; presence of GA3)	Johnsongrass % control 7 DAT (Johnsongrass; Clethodim 32 x g ai/a (9 fl oz/a of Selectmax), 0.25% v/v non-ionic surfactant and 2.5 lb/acre AMS, 7 DAT)	Johnsongrass % control 18 DAT (Johnsongrass; Clethodim 32 x g ai/a (9 fl oz/a of Selectmax), 0.25% v/v non-ionic surfactant and 2.5 lb/acre AMS, 18 DAT)	Johnsongrass % control 28 DAT (Johnsongrass; Clethodim 32 x g ai/a (9 fl oz/a of Selectmax), 0.25% v/v non-ionic surfactant and 2.5 lb/acre AMS, 28 DAT)	Corn % control 6 DAT ([1]; Clethodim 32 gm ai/a, 0.25% v/v non-ionic surfactant and 2.5 lb/acre ammonium sulfate, 6 DAT)	Corn % control 13 DAT ([1]; Clethodim 32 gm ai/a, 0.25% v/v non-ionic surfactant and 2.5 lb/acre ammonium sulfate, 13 DAT)	Corn % control 29 DAT ([1]; Clethodim 32 gm ai/a, 0.25% v/v non-ionic surfactant and 2.5 lb/acre ammonium sulfate, 29 DAT)
C=C1C[C@]23C[C@@]1(O)CC[C@H]2[C@@]12C=C[C@H](O)[C@@](C)(C(=O)O1)[C@H]2[C@@H]3C(=O)O [GA3, Gibberellic acid]	more than doubles	significantly increased	–	–	–	–	–	–
CCSC(C)CC1CC(=O)C(C(CC)=NOC/C=C/Cl)=C(O)C1 (centres unmarked) [Clethodim, 2-[1-[[[(2E)-3-chloro-2-propen-1-yl]oxy]imino]propyl]-5-[2-(ethylthio)propyl]-3-hydroxy-2-cyclohexen-1-one]	–	–	37.21%	85.66%	89.26%	48.33%	88.33%	96.00%
